IC50 and Kd data for 27 compounds are collected here from ChEMBL document CHEMBL4004823, “Discovery of Potent and Selective Inhibitors for G9a-Like Protein (GLP) Lysine Methyltransferase” (J Med Chem, 2017).

For test [1], the target named is T1, Histone-lysine N-methyltransferase EHMT1 (Homo sapiens, UniProt Q9H9B1).
T1 sequence (Q9H9B1 whole entry): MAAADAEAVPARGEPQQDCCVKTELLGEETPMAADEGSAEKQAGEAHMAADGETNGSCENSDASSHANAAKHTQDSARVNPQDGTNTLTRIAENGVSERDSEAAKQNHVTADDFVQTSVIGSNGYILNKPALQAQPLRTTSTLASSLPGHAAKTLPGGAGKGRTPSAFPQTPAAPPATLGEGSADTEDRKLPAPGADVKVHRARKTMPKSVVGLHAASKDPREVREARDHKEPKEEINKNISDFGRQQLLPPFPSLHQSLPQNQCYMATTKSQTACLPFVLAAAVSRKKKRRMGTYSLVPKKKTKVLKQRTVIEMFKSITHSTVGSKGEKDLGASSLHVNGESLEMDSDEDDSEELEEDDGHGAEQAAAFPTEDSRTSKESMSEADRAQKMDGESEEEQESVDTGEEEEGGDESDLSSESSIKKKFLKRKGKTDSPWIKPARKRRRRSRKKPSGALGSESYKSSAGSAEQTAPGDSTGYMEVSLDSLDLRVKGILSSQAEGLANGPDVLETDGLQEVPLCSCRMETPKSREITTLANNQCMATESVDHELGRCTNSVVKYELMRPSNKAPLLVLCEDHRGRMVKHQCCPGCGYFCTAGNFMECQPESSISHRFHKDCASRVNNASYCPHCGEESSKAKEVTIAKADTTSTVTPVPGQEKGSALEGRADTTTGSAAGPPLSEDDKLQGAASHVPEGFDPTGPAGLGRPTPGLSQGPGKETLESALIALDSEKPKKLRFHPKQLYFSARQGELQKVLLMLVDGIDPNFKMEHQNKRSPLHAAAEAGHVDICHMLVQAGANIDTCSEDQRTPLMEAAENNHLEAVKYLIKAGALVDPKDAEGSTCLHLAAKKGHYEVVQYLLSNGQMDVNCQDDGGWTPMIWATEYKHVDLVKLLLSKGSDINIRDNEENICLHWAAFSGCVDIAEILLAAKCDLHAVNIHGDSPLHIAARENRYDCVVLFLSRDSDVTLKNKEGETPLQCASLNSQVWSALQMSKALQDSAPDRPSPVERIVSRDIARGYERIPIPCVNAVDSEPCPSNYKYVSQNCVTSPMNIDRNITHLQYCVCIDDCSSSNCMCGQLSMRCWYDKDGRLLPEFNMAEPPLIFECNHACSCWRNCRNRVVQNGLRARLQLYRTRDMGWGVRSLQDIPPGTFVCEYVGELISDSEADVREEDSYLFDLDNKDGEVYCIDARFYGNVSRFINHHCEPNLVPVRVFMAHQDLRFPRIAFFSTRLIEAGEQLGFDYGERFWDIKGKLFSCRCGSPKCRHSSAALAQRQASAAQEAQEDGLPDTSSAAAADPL
The experiment in a line: Inhibition of recombinant GLP catalytic SET domain (982 to 1266 residues) (unknown origin) expressed in Escherichia coli BL21 (DE3) codon plus RIL assessed as inhibition of methylation activity using biotin-labeled H3 (1 to 25 residues) as substrate and [3H]-SAM after 2 hrs by scintillation proximity assay.

Test [2] has as its target T2, Histone-lysine N-methyltransferase EHMT2 (Homo sapiens, UniProt Q96KQ7).
T2 sequence (Q96KQ7 whole entry): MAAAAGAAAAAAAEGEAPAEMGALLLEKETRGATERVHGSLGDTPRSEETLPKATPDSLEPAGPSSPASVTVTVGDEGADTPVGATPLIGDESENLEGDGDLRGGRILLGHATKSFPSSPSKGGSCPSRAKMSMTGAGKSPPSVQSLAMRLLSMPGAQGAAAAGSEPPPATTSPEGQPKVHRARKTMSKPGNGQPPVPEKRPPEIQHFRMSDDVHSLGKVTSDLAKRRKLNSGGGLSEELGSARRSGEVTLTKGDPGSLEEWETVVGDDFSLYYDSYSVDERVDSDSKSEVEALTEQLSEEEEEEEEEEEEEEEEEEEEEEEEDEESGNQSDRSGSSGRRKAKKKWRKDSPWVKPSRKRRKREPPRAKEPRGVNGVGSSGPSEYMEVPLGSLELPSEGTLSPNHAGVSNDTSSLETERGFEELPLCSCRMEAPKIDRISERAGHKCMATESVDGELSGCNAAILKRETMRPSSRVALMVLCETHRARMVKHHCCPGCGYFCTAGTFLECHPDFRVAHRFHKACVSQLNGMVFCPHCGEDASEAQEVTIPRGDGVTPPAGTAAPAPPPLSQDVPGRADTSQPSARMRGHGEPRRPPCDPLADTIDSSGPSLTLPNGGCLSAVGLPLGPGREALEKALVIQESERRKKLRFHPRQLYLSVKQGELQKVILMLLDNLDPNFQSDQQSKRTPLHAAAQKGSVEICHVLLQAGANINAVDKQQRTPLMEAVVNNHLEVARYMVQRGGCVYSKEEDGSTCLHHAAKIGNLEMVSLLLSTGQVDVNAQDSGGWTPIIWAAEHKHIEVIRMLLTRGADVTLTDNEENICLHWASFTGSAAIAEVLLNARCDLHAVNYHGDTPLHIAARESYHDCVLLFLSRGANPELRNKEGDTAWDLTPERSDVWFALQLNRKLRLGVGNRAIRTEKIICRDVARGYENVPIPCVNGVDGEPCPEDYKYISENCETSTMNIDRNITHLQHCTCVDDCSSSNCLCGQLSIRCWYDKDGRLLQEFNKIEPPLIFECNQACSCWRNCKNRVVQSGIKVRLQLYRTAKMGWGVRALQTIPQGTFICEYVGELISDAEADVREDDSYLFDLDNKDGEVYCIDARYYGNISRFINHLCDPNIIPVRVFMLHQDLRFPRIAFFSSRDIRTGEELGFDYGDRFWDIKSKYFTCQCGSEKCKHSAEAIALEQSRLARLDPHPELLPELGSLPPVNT
In words: Inhibition of recombinant G9a catalytic SET domain (913 to 1193 residues) (unknown origin) expressed in Escherichia coli BL21 (DE3) codon plus RIL assessed as inhibition of methylation activity using biotin-labeled H3 (1 to 25 residues) as substrate and [3H]-SAM after 2 hrs by scintillation proximity assay. (SPA uses beads or plates that emit light when radiolabelled molecules are held near them.)

Test [3] addresses T1, Histone-lysine N-methyltransferase EHMT1. In words: Binding affinity to recombinant GLP catalytic SET domain (982 to 1266 residues) (unknown origin) expressed in Escherichia coli BL21 (DE3) codon plus RIL in presence of SAM by isothermal titration calorimetry. Background: Isothermal titration calorimetry measures the heat released or taken up as one component is titrated into another.

In test [4] the target is T2, Histone-lysine N-methyltransferase EHMT2. The experiment in a line: Binding affinity to recombinant G9a catalytic SET domain (913 to 1193 residues) (unknown origin) expressed in Escherichia coli BL21 (DE3) codon plus RIL in presence of SAM by isothermal titration calorimetry.

A word on the IC50: it is the concentration that inhibits the measured activity by half. As for `COc1cc2nc(N3CCOCC3)nc(NC3CCN(C)CC3)c2cc1C`, the values for the IC50 in test [1] and in test [2] were 808 nM and 4070 nM, respectively.
Regarding `COc1cc2nc(N3CCCC3)nc(NC3CCN(C)CC3)c2cc1OC`, the values for the IC50 in test [1] and in test [2] were 12 nM and 313 nM, respectively.
For `CCN1CCC(Nc2nc(N3CCOCC3)nc3cc(OC)c(OC)cc23)CC1`, the half-inhibitory concentration (IC50) in test [1] was determined as 26 nM; in test [2] it was 323 nM.
Turning to `CCCCCCCNc1nc(NC2CCN(C)CC2)c2cc(OC)c(OC)cc2n1`, the 50% inhibitory concentration (IC50) in test [1] came to 44 nM; in test [2] it was 756 nM.
For `COc1cc2nc(C3CCCCC3)nc(NC3CCN(C)CC3)c2cc1OC`, the 50% inhibitory concentration (IC50) in test [1] was 34 nM; in test [2], 438 nM.
Regarding `CCOc1cc2c(NC3CCN(C)CC3)nc(N3CCOCC3)nc2cc1OC`, the IC50 in test [1] and in test [2] was above 5000 nM throughout.
Regarding `COc1cc2c(NC3CCN(C)CC3)nc(N3CCOCC3)nc2cc1F`, the IC50 in test [1] and in test [2] was above 5000 nM in each case.
`COc1cc2nc(N3CCOCC3)nc(NC3CCN(C(C)C)CC3)c2cc1OC`: the IC50 in test [1] is 15 nM; in test [2] it was 262 nM.
On to `CCCCNc1nc(NC2CCN(C)CC2)c2cc(OC)c(OC)cc2n1`, for which the half-maximal inhibitory concentration (IC50) was determined as 35 nM in test [1] and 436 nM in test [2].
Consider `COc1cc2nc(N3CCC(F)(F)CC3)nc(NC3CCN(C)CC3)c2cc1OC`, for which the IC50 in test [1] was 97 nM; in test [2], 1060 nM.
In the case of `CCCCCCN(C)c1nc(NC2CCN(C)CC2)c2cc(OC)c(OC)cc2n1`, the IC50 turned out to be 18 nM in test [1] and 311 nM in test [2].
The corresponding values for `CCOc1cc2nc(N3CCOCC3)nc(NC3CCN(C)CC3)c2cc1OC` are above 1000 nM and above 5000 nM.
With `CCCN1CCC(Nc2nc(N3CCOCC3)nc3cc(OC)c(OC)cc23)CC1`, the values for the 50% inhibitory concentration (IC50) in test [1] and in test [2] were 11 nM and 224 nM, respectively.
What is called Kd is the concentration at which binding is half-saturated. For the compound `CCCCCCNc1nc(NC2CCN(C)CC2)c2cc(OC)c(OC)cc2n1`, the figures for the equilibrium dissociation constant (Kd) in test [3] and in test [4] were 46 nM and 610 nM, respectively. In addition, the half-inhibitory concentration (IC50) turned out to be 7 nM in test [1] and 992 nM in test [2].
`COc1cc2nc(N3CCOCC3)nc(NC3CCN(C)CC3)c2cc1OC(C)C`: the IC50 in test [1] and in test [2] was above 5000 nM in each case.
As for `COc1cc2nc(N3CCOCC3)nc(NC3CCN(C)CC3)c2cc1F`, the IC50 in test [1] turned out to be 1230 nM; in test [2], 3690 nM.
Take `COc1cc2c(NC3CCN(C)CC3)nc(N3CCOCC3)nc2cc1C`: the concentration for half-maximal inhibition (IC50) in test [1] worked out at 29 nM; in test [2] it was 1150 nM.
Turning to `COc1cc2nc(N3CCOCC3)nc(NC3CCN(C4CC4)CC3)c2cc1OC`, the 50% inhibitory concentration (IC50) was found to be 12 nM in test [1] and 313 nM in test [2].
As for `CCCCN(C)c1nc(NC2CCN(C)CC2)c2cc(OC)c(OC)cc2n1`, the half-maximal inhibitory concentration (IC50) came out at 35 nM in test [1] and 407 nM in test [2].
In the case of `COc1cc2nc(C3CCOCC3)nc(NC3CCN(C)CC3)c2cc1OC`, the IC50 is 341 nM in test [1] and 1910 nM in test [2].
The corresponding values for `COc1cc2nc(N3CCCCCC3)nc(NC3CCN(C)CC3)c2cc1OC` are 16 nM and 190 nM.
The corresponding values for `CCCCCN(C)c1nc(NC2CCN(C)CC2)c2cc(OC)c(OC)cc2n1` are 28 nM and 306 nM.
`COc1cc2c(NC3CCN(C)CC3)nc(N3CCOCC3)nc2cc1OC(C)C`: the concentration for half-maximal inhibition (IC50) in test [1] and in test [2] was above 5000 nM each time.
As to `CCCCCNc1nc(NC2CCN(C)CC2)c2cc(OC)c(OC)cc2n1`, the half-inhibitory concentration (IC50) came out at 63 nM in test [1] and 341 nM in test [2].
In the case of `COc1cc2nc(N3CCCCC3)nc(NC3CCN(C)CC3)c2cc1OC`, the IC50 in test [1] amounted to 12 nM; in test [2] it was 31 nM.
For `COc1cc2nc(N3CCOCC3)nc(NC3CCN(C)CC3)c2cc1OC`, the figures for the Kd in test [3] and in test [4] were 40 nM and 445 nM, respectively. For the same compound, the half-inhibitory concentration (IC50) is 13 nM in test [1] and 440 nM in test [2].
As to `COc1cc2nc(N3CCCN(C)CC3)nc(NC3CCN(C)CC3)c2cc1OC`, the half-maximal inhibitory concentration (IC50) in test [1] worked out at 4 nM.
